# Target: T1, full-length human PKCι (Homo sapiens, UniProt P41743)
# T1 construct: Recombinant, full-length human PKCι expressed in Sf21 insect cells is also commercially available; purchased EMD Millipore; host or cells: Sf21 insect cells (baculovirus)
# T1 sequence (P41743 1-596): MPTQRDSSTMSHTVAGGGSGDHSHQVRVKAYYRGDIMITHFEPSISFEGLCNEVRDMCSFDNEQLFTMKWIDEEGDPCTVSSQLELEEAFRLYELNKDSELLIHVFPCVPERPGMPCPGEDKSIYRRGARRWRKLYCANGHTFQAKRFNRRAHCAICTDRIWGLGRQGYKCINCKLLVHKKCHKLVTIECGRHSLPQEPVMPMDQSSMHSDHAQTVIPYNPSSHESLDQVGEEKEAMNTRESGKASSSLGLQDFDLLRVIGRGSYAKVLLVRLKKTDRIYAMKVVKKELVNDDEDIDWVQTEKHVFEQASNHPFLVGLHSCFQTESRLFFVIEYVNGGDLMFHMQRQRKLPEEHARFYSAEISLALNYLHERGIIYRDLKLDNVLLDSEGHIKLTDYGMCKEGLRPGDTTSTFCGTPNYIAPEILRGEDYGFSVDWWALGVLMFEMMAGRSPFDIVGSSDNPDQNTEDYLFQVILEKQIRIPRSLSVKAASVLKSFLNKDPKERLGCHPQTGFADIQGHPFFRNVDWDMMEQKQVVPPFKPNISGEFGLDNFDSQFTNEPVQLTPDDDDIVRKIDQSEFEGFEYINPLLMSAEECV
# Assay: PKCι IC50 IMAP fluorescence polarisation assay, full-length enzyme, 150 μM ATP
# Assay type: biochemical
# Details: read-out: IC50 in IMAP assay against full length PKCi at 150 μM ATP
# Description: Assays are based on the ability of PKCι to phosphorylate a commercially available peptide substrate in vitro. The peptide substrate is FAM-PKCε pseudopeptide derived peptide, and comprises the amino acid sequence 5FAM-ERMRPRKRQGSVRRRV-NH2. Recombinant, full-length human PKCι expressed in Sf21 insect cells is also commercially available. Recombinant, kinase-domain human PKCι is expressed and purified in-house.
# The procedure below explains how dose response curves for inhibitors of PKCι are obtained. The screen described is for a 384 well format but the assay can be adapted to 1536 or other formats as required.
# Compounds to be tested are dissolved in 100% DMSO. Compounds are diluted as required to give a final concentration of 4% DMSO (v/v) in the assay. 1 μl is plated into 384 well black low-binding flat bottomed assay plates which are used immediately. Dilutions and additions of compound to assay plates are carried out using Matrix WellMate® and Matrix PlateMate® Plus liquid handling systems.
# On the day of the screen PKCι/substrate working solution, and ATP working solution, are prepared in buffer containing 20 mM tris-HCl pH7.5, 10 mM MgCl2, 0.01% Triton X100, 250 μM EGTA and 1 mM DTT. The final concentration of PKCι used varies depending on the batch of protein but is typically 15 pM. The final concentration of peptide substrate in the assay is 100 nM. ATP is used at a final concentration of 150 μM or 25 μM in the assays containing full-length or kinase-domain PKCι respectively, which corresponds to five times or equal to the KM^APP for ATP for each enzyme, respectively. The final buffer concentration in the assay is 18 mM tris-HCl pH7.5, 9 mM MgCl2, 0.009% Triton X100, 225 μM EGTA and 0.9 mM DTT. Relevant controls are included, namely no compound and no enzyme. 5 μl PKCι/substrate working solution at 30 pM and 200 nM, respectively, is added to the wells, followed by 4 μl ATP working solution at 375 μM or 62.5 μM for full-length or kinase-domain PKCι respectively, using a 16 channel Matrix pipette. The reaction is allowed to incubate for 60 minutes at room temperature, before the reaction is stopped and developed by the addition of 20 μl IMAP™ development reagent (Molecular Devices). IMAP development reagent consists of 0.25% (v/v) IMAP progressive binding reagent, 17% (v/v) IMAP progressive binding buffer A and 3% (v/v) IMAP progressive binding buffer B. The plates are then incubated for 2 hours at room temperature before being read using an appropriate plate reader, for example a Molecular Devices HT Analyst or a BMG Pherastar. Plates are read using a fluorescence polarisation protocol with excitation at 485 nm and emission at 530 nm, and dichroic mirror at 505 nm.
# Percentage inhibition values are calculated from fluorescence polarisation values, using the no compound and no enzyme control values as 0% and 100% inhibition, respectively. IC50 determination is performed with ExcelFit software (IDBS) using curve fit 205. Z′ factors are determined for each plate tested and are all above 0.5.
# Alternatively, compounds were tested for their ability to inhibit the kinase activity of recombinant human baculovirus-expressed PKCiota using the immobilized metal-ion affinity particle (IMAP®) fluorescence polarization detection system (Molecular Devices, Sunnyvale, Calif.). PKCiota/IMAP® substrate mixture (2×) was prepared in 1×IMAP assay buffer (Molecular Devices) containing 1 mM DTT so that the final assay concentrations were 15 pM PKCiota (EMD Millipore, Billerica, Mass.) and 100 nM 5-fluorescein-amidite (FAM)-PKC ? -pseudosubstrate (5-FAM-ERMRPRKRQGSVRRRV-NH2) (Molecular Devices). The 2× working solution was added at 5 μL/well into a 384-well black, non-binding, flat bottom assay plate (Corning, Corning, N.Y.). […]
row,Structure (SMILES),IC50 [µM]
1,"FC(F)(F)c1cc2c(-c3nc(N4CCC[C@H]5CNC[C@H]54)c4c(C5CC5)cncc4n3)ccnc2[nH]1 (racemic) [Example 8, (±)-5-Cyclopropyl-4-(4,7-cis)-octahydro-pyrrolo[3,4-b]pvridin-1-yl-2-(2-trifluoromethyl-1H-pyrrolo[2,3-b]pyridin-4-yl)-pyrido[3,4-d]pyrimidine]",< 0.1
2,"Clc1ccccc1-c1cc2c(-c3nc(N4CC[C@@H]5CNCC[C@@H]54)c4c(C5CC5)cncc4n3)ccnc2[nH]1 (racemic) [Example 27, (±)-2-[2-(2-Chloro-phenyl)-1H-pyrrolo[2,3-b]pyridin-4-yl]-5-cyclopropyl-4-(3aR,7aS)-octahydro-pyrrolo[3,2-c]pyridin-1-yl-pyrido[3,4-d]pyrimidine]",< 0.1
3,"CC(C)(C)c1nc(-c2cc3c(-c4nc(N5CC[C@H]6NCC[C@H]65)c5c(C6CC6)cncc5n4)ccnc3[nH]2)cs1 (racemic) [Example 34, (±)-2-[2-(2-tert-Butyl-thiazol-4-yl)-1H-pyrrolo[2,3-b]pyridin-4-yl]-5-cyclopropyl-4-(3,6-cis)-hexahydro-pyrrolo[3,2-b]pyrrol-1-yl-pyrido[3,4-d]pyrimidine]",< 0.1
4,"Fc1cccnc1-c1cc2c(-c3nc(N4CC[C@H]5NCC[C@H]54)c4c(C5CC5)cncc4n3)ccnc2[nH]1 (racemic) [Example 56, (±)-5-Cyclopropyl-2-[2-(3-fluoro-pyridin-2-yl)-1H-pyrrolo[2,3-b]pyridin-4-yl]-4-(3,6- cis)-hexahydro-pyrrolo[3,2-b]pyrrol-1-yl-pyrido[3,4-d]pyrimidine]",< 0.1
5,"Fc1cccnc1-c1cc2c(-c3nc(N4CC[C@H]5NCC[C@H]54)c4c(C5CCC5)cncc4n3)ccnc2[nH]1 (racemic) [Example 57, (±)-5-Cyclobutyl-2-[2-(3-fluoro-pyridin-2-yl)-1H-pyrrolo[2,3-b]pyridin-4-yl]-4-(3,6- cis)-hexahydro-pyrrolo[3,2-b]pyrrol-1-yl-pyrido[3,4-d]pyrimidine]",< 0.1
6,"O[C@]12CCN(c3nc(-c4ccnc5[nH]c6ccccc6c45)nc4cncc(C5CCC5)c34)[C@H]1CCNC2 (racemic) [Example 76, (±)-(3aS,7aS)-1-[5-Cyclobutyl-2-(9H-pyrido[2,3-b]indol-4-yl)-pyrido[3,4-d]pyrimidin-4-yl]-octahydro-pyrrolo[3,2-c]pyridin-3a-ol]",< 0.1
7,"CN(c1nc(-c2ccnc3[nH]c4ccccc4c23)nc2cncc(C3CCC3)c12)[C@@H]1CCNC[C@@]1(C)O (racemic) [Example 77, (±)-(3,4-trans)-4-{[5-Cyclobutyl-2-(9H-pyrido[2,3-b]indol-4-yl)-pyrido[3,4-d]pyrimidin-4-yl]-methyl-amino}-3-methyl-piperidin-3-ol]",< 0.1
8,"FC(F)(F)c1cc2c(-c3nc(N4CCCC5NCCCC54)c4c(C5CCC5)cncc4n3)ccnc2[nH]1 (racemic) [Example 81, 5-Cyclobutyl-4-(octahydro-[1,5]naphthyridin-1-yl)-2-(2-trifluoromethyl-1H-pyrrolo[2,3-b]pyridin-4-yl)-pyrido[3,4-d]pyrimidine]",< 0.1
9,"O[C@]12CCN(c3nc(-c4ccnc5[nH]c(C(F)(F)F)cc45)nc4cncc(C5CC5)c34)[C@H]1CCNC2 (racemic) [Example 104, (±)-(3aS,7aS)-1-[5-Cyclopropyl-2-(2-trifluoromethyl-1H-pyrrolo[2,3-b]pyridin-4-yl)-pyrido[3,4-d]pyrimidin-4-yl]-octahydro-pyrrolo [3,2-c]pyridin-3a-ol]",< 0.1

# The remaining lines, values ahead:
row,IC50 [µM],Structure (SMILES)
1,< 0.1,"FC(F)(F)c1cc2c(-c3nc(N4CC[C@H]5NCC[C@H]54)c4c(C5CC5)cncc4n3)ccnc2[nH]1 (racemic) [Example 19, (±)-5-Cyclopropyl-4-(3,6-cis)-hexahydro-pyrrolo[3,2-b]pyrrol-1-yl-2-(2-trifluoromethyl-1H-pyrrolo[2,3-b]pyridin-4-yl)-pyrido[3,4-d]pyrimidine]"
2,< 0.1,"FC(F)(F)c1cc2c(-c3nc(N4CC[C@H]5NCC[C@H]54)c4c(C5CCC5)cncc4n3)ccnc2[nH]1 (racemic) [Example 54, (±)-5-Cyclobutyl-4-(3,6-cis)-hexahydro-pyrrolo[3,2-b]pyrrol-1-yl-2-(2-trifluoromethyl-1H-pyrrolo[2,3-b]pyridin-4-yl)-pyrido[3,4-d]pyrimidine]"
3,< 0.1,"FC(F)(F)c1cc2c(-c3nc(N4CC[C@H]5NCCC[C@H]54)c4c(C5CC5)cncc4n3)ccnc2[nH]1 (racemic) [Example 63, (±)-5-Cyclopropyl-4-(3,7-cis)-octahydro-pyrrolo[3,2-b]pyridin-1-yl-2-(2-trifluoromethyl-1H-pyrrolo[2,3-b]pyridin-4-yl)-pyrido[3,4-d]pyrimidine]"
4,< 0.1,"FC(F)(F)c1cc2c(-c3nc(N4CC[C@H]5NCCC[C@H]54)c4c(C5CCC5)cncc4n3)ccnc2[nH]1 (racemic) [Example 80, (±)-5-Cyclobutyl-4-(3,7-cis)-octahydro-pyrrolo[3,2-b]pyridin-1-yl-2-(2-trifluoromethyl-1H-pyrrolo[2,3-b]pyridin-4-yl)-pyrido[3,4-d]pyrimidine]"
5,< 0.1,"Cc1cc2c(-c3nc(N4CC[C@H]5NCC[C@H]54)c4c(C5CC5)cncc4n3)ccnc2[nH]1 (racemic) [Example 82, (±)-5-Cyclopropyl-4-(3,6-cis)-hexahydro-pyrrolo[3,2-b]pyrrol-1-yl-2-(2-methyl-1H-pyrrolo[2,3-b]pyridin-4-yl)-pyrido[3,4-d]pyrimidine]"
6,< 0.1,"Cc1cc2c(-c3nc(N4CC[C@H]5NCCC[C@H]54)c4c(C5CC5)cncc4n3)ccnc2[nH]1 (racemic) [Example 83, (±)-5-Cyclopropyl-2-(2-methyl-1H-pyrrolo[2,3-b]pyridin-4-yl)-4-(3,7-cis)-octahydro-pyrrolo [3,2-b]pyridin-1-yl-pyrido[3,4-d]pyrimidine]"
7,< 0.1,"Cc1cc2c(-c3nc(N4CC[C@H]5NCC[C@H]54)c4c(C5CCC5)cncc4n3)ccnc2[nH]1 (racemic) [Example 84, (±)-5-Cyclobutyl-4-(3,6-cis)-hexahydro-pyrrolo[3,2-b]pyrrol-1-yl-2-(2-methyl-1H-pyrrolo[2,3-b]pyridin-4-yl)-pyrido[3,4-d]pyrimidine]"
8,< 0.1,"Cc1cc2c(-c3nc(N4CC[C@H]5NCCC[C@H]54)c4c(C5CCC5)cncc4n3)ccnc2[nH]1 (racemic) [Example 85, (±)-5-Cyclobutyl-2-(2-methyl-1H-pyrrolo[2,3-b]pyridin-4-yl)-4-(3,7-cis)-octahydro-pyrrolo [3,2-b]pyridin-1-yl-pyrido[3,4-d]pyrimidine]"

# — patent US10414763B2 (CANCER RESEARCH TECHNOLOGY LIMITED, priority 2014, dated 2019)
